Measured values from paper PMC2990756, “Quantitative High-Throughput Screening Identifies 8-Hydroxyquinolines as Cell-Active Histone Demethylase Inhibitors” (PLoS ONE, 2010).
Like-named read-outs stand apart in the source and are kept apart here.

How the values were obtained:
Type in all cases: biochemical
[1] = molecular target: T1, JMJD2E (KDM4E) (Homo sapiens, UniProt B2RXH2); test: qHTS fluorescence FDH-coupled JMJD2E demethylase assay
T1 construct: The catalytic domain of human JMJD2E (residues 1–337); His6 (N); made in house; host or cells: E. coli
T1 sequence (B2RXH2 1-337): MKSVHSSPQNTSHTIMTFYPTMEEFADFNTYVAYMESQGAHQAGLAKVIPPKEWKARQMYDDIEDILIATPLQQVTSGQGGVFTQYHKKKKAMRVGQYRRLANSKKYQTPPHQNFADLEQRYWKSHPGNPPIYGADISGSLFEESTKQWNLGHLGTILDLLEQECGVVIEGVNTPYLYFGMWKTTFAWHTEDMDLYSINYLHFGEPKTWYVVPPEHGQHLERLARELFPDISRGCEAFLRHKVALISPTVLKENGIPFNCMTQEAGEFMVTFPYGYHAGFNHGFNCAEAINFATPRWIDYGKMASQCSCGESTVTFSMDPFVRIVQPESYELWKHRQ

[2] = molecular target: T2, formaldehyde dehydrogenase (FDH) (Pseudomonas putida, UniProt P46154); test: FDH coupling enzyme counterscreen; details: Table S1, FDH counterscreen; for IC50: unit not in table, from Figure 2, read-out: qHTS Data: jmjd2e fdh IC50
T2 construct: purchased Sigma-Aldrich
Source text: Dimethylsulfoxide certified ACS grade (DMSO) was from Fisher, Inc. HEPES buffer was obtained from Gibco. […] Black solid-bottom 1,536-well assay plates were from Greiner Bio-One (Monroe, NC).

[3] = molecular target: T3, JMJD2E (Homo sapiens, UniProt B2RXH2); test: JMJD2E FDH-coupled assay under low and high iron conditions (iron chelation profile); set-up: The catalytic domain of human JMJD2E (residues 1–337); His6 (N); made in house; host or cells: E. coli; details: Table S1; for IC50: unit not in table, from Figure 2
T3 sequence (B2RXH2 1-337): T1 sequence (B2RXH2 1-337)
Procedure: The prioritized compounds were also evaluated in the screening assay using two different ferrous ion concentrations (termed high iron and low iron, respectively), in order to assess their propensity for iron chelation.
The ratio of IC50 values under high iron to low iron was calculated for each compound.

[4] = Table S1, unit not in table, from Figure 2, read-out: qHTS Data: jmjd2e IC50
[5] = high iron, head says 20 µM FAS, read-out: qHTS Data: jmjd2e fas20um IC50
[6] = low iron 2.5 µM FAS, read-out: qHTS Data: jmjd2e fas2.5um IC50

T2 sequence (P46154 whole entry): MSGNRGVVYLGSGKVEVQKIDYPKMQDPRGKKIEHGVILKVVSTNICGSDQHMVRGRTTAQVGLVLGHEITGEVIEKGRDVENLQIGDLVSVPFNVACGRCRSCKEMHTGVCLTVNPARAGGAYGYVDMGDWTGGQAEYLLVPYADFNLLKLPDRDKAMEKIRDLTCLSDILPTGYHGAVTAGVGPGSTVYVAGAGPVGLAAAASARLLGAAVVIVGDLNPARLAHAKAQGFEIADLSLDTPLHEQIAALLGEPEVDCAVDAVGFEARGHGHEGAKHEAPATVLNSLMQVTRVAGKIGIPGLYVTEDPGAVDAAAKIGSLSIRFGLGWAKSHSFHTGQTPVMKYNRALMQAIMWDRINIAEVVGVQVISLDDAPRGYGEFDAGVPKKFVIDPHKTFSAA

Row | Structure (SMILES) | IC50 [1, 4] | qHTS Data: jmjd2e fdh CurveClass [2] | IC50 [3, 5] | IC50 [3, 6] | IC50 [2] | qHTS Data: jmjd2e fas20um CurveClass ([3]; high iron) | IC50 ([1]; Figure 3, substituted 8-hydroxyquinolines against JMJD2E, read-out: IC50 /μM (qHTS IC50, FDH-coupled assay)) | qHTS Data: jmjd2e fas2.5um Curve comment ([3]; low iron 2.5 µM FAS)
1 | Cl.NC(CO)C(=O)NNCc1ccc(O)c(O)c1O (centres unmarked) [compound 855739] | 2.24 µM | Inactive | 3.98 µM | 1.78 µM | – | – | – | –
2 | COc1ccc(Cn2c(O)c(/C=N/NC(=O)c3ccncc3)c(=O)[nH]c2=O)cc1 [compound 26667135] | 7.94 µM | Poor quality curve | 8.91 µM | 8.91 µM | 14.1 µM | – | – | –
3 | Oc1ccccc1O [compound 50105556] | 14.1 µM | Inactive | 14.1 µM | 10 µM | – | Poor quality curve | – | –
4 | CN(N=O)c1ccc(O)c(O)c1 [compound 50106719] | 10 µM | Poor quality curve | – | 7.94 µM | 31.6 µM | Inactive | – | –
5 | O=C(NO)c1ccccc1O [compound 855524] | 10 µM | Poor quality curve | – | 12.6 µM | 3.55 µM | Inactive | – | –
6 | O=[N+]([O-])c1ccc(O)c(/C=N/Nc2ccc(Cl)nn2)c1 [compound 17416266] | 5.62 µM | Inactive | – | 5.62 µM | – | Inactive | – | –
7 | O=C(OCC1OC(OC(=O)c2cc(O)c(O)c(OC(=O)c3cc(O)c(O)c(O)c3)c2)[C@@H](OC(=O)c2cc(O)c(O)c(OC(=O)c3cc(O)c(O)c(O)c3)c2)C(OC(=O)c2cc(O)c(O)c(OC(=O)c3cc(O)c(O)c(O)c3)c2)C1OC(=O)c1cc(O)c(O)c(OC(=O)c2cc(O)c(O)c(O)c2)c1)c1cc(O)c(O)c(OC(=O)c2cc(O)c(O)c(O)c2)c1 (some centres unmarked) [compound 26748902] | 0.28 µM | – | 15.8 µM | 0.16 µM | 7.94 µM | – | – | –
8 | Oc1ccc(NCc2cccc(OCc3ccccc3)c2)cc1 [compound 24795995] | 4.47 µM | Inactive | 35.5 µM | 14.1 µM | – | – | – | –
9 | N[C@H](Cc1ccc(O)c(O)c1)C(=O)O [compound 50106235] | 17.8 µM | Inactive | 12.6 µM | 12.6 µM | – | – | – | –
10 | COc1cc(/C=N/Nc2nncn2N)ccc1OCc1c(C)no[n+]1[O-] [compound 26657989] | 0.5 µM | Inactive | – | 4.47 µM | – | Inactive | – | –
11 | Cc1ccc(N2C(=O)CC(Sc3ncn[nH]3)C2=O)cc1C (centres unmarked) [compound 14726720] | 1.26 µM | – | – | 1.41 µM | 0.22 µM | Inactive | – | –
12 | CN(C)[C@H]1C(=O)C(C(=O)NCN[C@@H](CCCCN)C(=O)O)=C(O)[C@]2(O)C(=O)C3=C(O)c4c(O)cccc4[C@@](C)(O)[C@H]3C[C@@H]12 [compound 11112463] | 8.91 µM | Inactive | 15.8 µM | 14.1 µM | – | – | – | –
13 | O=C(OC1Cc2c(O)cc(O)cc2OC1c1cc(O)c(O)c(O)c1)c1cc(O)c(O)c(O)c1 (centres unmarked) [compound 26749738] | 2.51 µM | Poor quality curve | 7.08 µM | 1.41 µM | 14.1 µM | – | – | –
14 | O=C(CC1Sc2ncnn2C1=O)Nc1ccc(Cl)cc1 (centres unmarked) [compound 24795544] | 1.58 µM | – | 7.94 µM | 2 µM | 0.25 µM | – | – | –
15 | O=Cc1ccc(O)c(O)c1 [compound 8139931] | 4.47 µM | Inactive | – | 3.55 µM | – | Inactive | – | –
16 | Oc1ccc(CNc2ccccc2)c2cccnc12 [compound 842629] | 8.91 µM | Inactive | 14.1 µM | 1.26 µM | – | – | 8.9 µM | –
17 | C[C@@](N)(Cc1ccc(O)c(O)c1)C(=O)O [compound 11112415] | 4.47 µM | Inactive | 2 µM | 4.47 µM | – | – | – | –
18 | O=C(CSc1ncn[nH]1)c1cccc([N+](=O)[O-])c1 [compound 17510781] | 7.94 µM | – | 14.1 µM | 10 µM | 0.89 µM | – | – | –
19 | CN(C)C1C(=O)C(C(N)=O)=C(O)[C@@]2(O)C(=O)C3=C(O)c4c(O)cccc4[C@@](C)(O)C3CC12.Cl (some centres unmarked) [compound 26748266] | 2.51 µM | Poor quality curve | 1.78 µM | 15.8 µM | 15.8 µM | – | – | –
20 | C[C@H](N)[C@H](O)c1ccc(O)c(O)c1 [compound 11112447] | 4.47 µM | Inactive | 2.24 µM | 3.98 µM | – | – | – | –
21 | CN(C)c1ccnc(C(=O)O)c1 [compound 24815512] | 2.82 µM | Inactive | 15.8 µM | – | – | Poor quality curve | – | Inactive
22 | Cc1cc2c(C(C)C)c(O)c(O)c(C=O)c2c(O)c1-c1c(C)cc2c(C(C)C)c(O)c(O)c(C=O)c2c1O [compound 11112318] | 7.94 µM | – | 15.8 µM | 1.12 µM | 31.6 µM | – | – | –
23 | COC(=O)c1cc(=O)c(O)c2c(O)c(O)ccc2c1 [compound 26749939] | 8.91 µM | Inactive | 22.4 µM | 7.94 µM | – | – | – | –
24 | CNCCc1ccc(O)c(O)c1.Cl [compound 50106160] | 14.1 µM | Poor quality curve | 11.2 µM | 4.47 µM | 3.16 µM | – | – | –
25 | O=c1c(O)cccc2cc(O)c(O)c(O)c12 [compound 26665710] | 7.94 µM | Poor quality curve | 12.6 µM | 2.24 µM | 6.31 µM | – | – | –
26 | C=C1c2cccc(O)c2C(O)=C2C(=O)[C@]3(O)C(O)=C(C(N)=O)C(=O)C(N(C)C)C3C(O)C12.Cl (some centres unmarked) [compound 26748477] | 8.91 µM | Inactive | 2.51 µM | 12.6 µM | – | Poor quality curve | – | –
27 | Cc1ccnc(NC(c2cccnc2)c2ccc3cccnc3c2O)c1 (centres unmarked) [compound 24794739] | 5.62 µM | Poor quality curve | 14.1 µM | 11.2 µM | 0.03 µM | – | – | –
28 | C/C(=N\Nc1ccc2nncn2n1)c1ccccn1 [compound 26664046] | 10 µM | Poor quality curve | 8.91 µM | 8.91 µM | 35.5 µM | – | – | –
29 | N#C/C(=C\c1cc(O)c(O)c(O)c1)C(N)=O [compound 26725225] | 1 µM | Poor quality curve | 8.91 µM | 2.24 µM | 39.8 µM | – | – | –
30 | Oc1ccc(CN2CCCc3ccccc32)c2cccnc12 [compound 4249321] | 8.91 µM | Inactive | – | 1.26 µM | – | Inactive | – | –
